Consider three compounds from US20190284192A1, “NITROGENOUS MACROCYCLIC COMPOUND, PREPARATION METHOD THEREFOR, PHARMACEUTICAL COMPOSITION AND APPLICATION THEREOF” (LUOXIN PHARMACEUTICAL (SHANGHAI) CO., LTD., priority 2016, published 2019).

In one data set the test system is SU-DHL-6 cells. Kind of data set: Inhibitory effect on SU-DHL-6 cells (CellTiter-Glo). Format: cell-based. Particulars: Homo sapiens; 72 hours, CellTiter-Glo; read-out: SU-DHL-6. The protocol: Determinations of the inhibition of the compounds from the above embodiments against SU-DHL-6 cells, the detailed operation steps are as followed:
The 1st Day: Seed the Cells on the Plate
1. The cells were verified that they were in good conditions by observation under microscope;
2. The cells were transferred to a centrifuge tubes, after centrifuged at 1000 rpm for 5 min, the supernatant was discarded;
3. The complete substrate (1640+10% FBS) was added, then blown and patted into single cell suspension, counted by Vi-cell cytometer, the cell suspension was adjusted to desired cell density by the complete medium.
4. The cells were inoculated into a 96 well plate, the cell number was 12000/well at 100 μL per well, 100 μL complete medium was added into the black control;
5. 37° C., 5% CO2 culture overnight.
The 2nd Day: Addition of the Drugs
1. 1000× Compound Plate Preparation
1.1. The test compound was prepared into 10 mM working solution by using DMSO. Then the STS was prepared into 2 mM working solution by using DMSO.
1.2. In the round bottom 96 wells plate, the column 2 of row A to H was added into 60 μL 10 mM test compound (or STS) working solution, columns 3-11 were added into 40 μL DMSO, 20 μL drug solution was pipetted from the column 2 to the column 3, blown and patted for a homogeneous mixture; then 20 μL solution was pipetted from the column 3 to the column 4, blown and patted for a homogeneous mixture, sequently, the drug was diluted by 3 times, 10 concentrations in total. The columns 1 and 12 were supplemented with 40 μL of DMSO.
2. Intermediate plate preparation
A sterile V-bottom 96 deep well plate was used and in each well, 495 μL FBS-free PRMI 1640 medium was added, then 5 μL of the diluted compound (or DMSO) in the 1000× compound plate was pipetted into corresponding position of the V-bottom 96 well plate, blown and patted evenly.
3.1. The cell plate was taken out from the incubator and was observed under microscope. The diluted compound or DMSO in the intermediate plate was added into the cell plate, 11 μL each well.
3.2. The cell was continued to be cultured at 37° C., 5% CO2 for 72 hours.
The 5th Day: CellTiter-Glo Detection of the Cell Activity
1. The CellTiter-Glo buffer and the reaction substrate were taken out from the refrigerator, after balanced to r.t., the buffer was poured into a brown bottle containing the substrate, the bottle was upside down to have the substrate powder sufficientaly dissolved.
2. The cell was observed under microscope; the cell plate was balanced to r.t.
3. The prepared CellTiter-Glo was added into the 96 well plate, at 100 μL/well.
4. The cell plate was placed on a shaker for 10 min, followed by standing at r.t. for 10 min.
5. A white seal film was attached to the bottom of the well plate, and the chemiluminescence signal of each well was detected by the Enspire microplate detector.
6. XLfit was used for data processing. Inhibition rate %=(d-c)/(d-b)×100, while d is the signal value of the DMSO treated group, c is the signal value of the compound treated group, b is signal value of the blank control that only containing medium and DMSO without cells. The data was fitted using the f (x)205[fit=(A+((B−A)/(1+((C/x)^∧D))))] equation in the XLfit software.

Data set [1] can be described thus: Metabolic stability in mouse liver microsomes. Format: in vitro ADME. Particulars: mouse liver microsomes 0.5 mg/mL, NADPH, 37° C.; for CLint scaled at 1 µM: pH 7.4, read-out: MLM_CLint. Summed up:
(§1)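 Compound at 1.5 μM in liver microsome dosing solution (pH 7.4 potassium phosphate, 1.0 mM EDTA) was incubated at 37 °C with NADPH and sampled at 0, 5, 15, 30, 45 min in duplicate, quenched with ACN. LC-MS/MS remaining compound fit to first-order decay; T1/2 = 0.693/K.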

Data set [2] in a line: Metabolic stability in human liver microsomes. It is filed as in vitro ADME. The settings on record: human liver microsomes 0.5 mg/mL, NADPH, 37° C.; for CLint scaled at 1 µM: pH 7.4, read-out: HLM_CLint. Put shortly: as §1
In general terms: Liver microsomes are a subcellular fraction often used to study metabolism.

A further data set has as its target T1, BRD4 (BD1) (Homo sapiens, UniProt O60885).
T1 construct: Each member comprises two tandem bromodomains (BD1 and BD2) for recognizing the acetylated lysine residues
Kind of data set: BRD4 (BD1) bromodomain binding, HTRF. Particulars: 2 h incubation at r.t. On the technique in general: TR-FRET usually uses a lanthanide donor and a delayed reading to cut background.

The structures appear in SMILES notation.

Regarding `CCS(=O)(=O)Cc1ccc2c(c1)-c1cn(C)c(=O)cc1[C@H](C)N=C2c1ccc(F)cc1` [Compound 4026, (S)-10-((ethylsulfone)methyl)-7-(4-fluorophenyl)-2,5-dimethyl-2,5-dihydro-3H-benzo[c]pyrido[3,4-e]azepin-3-ketone], the results for the IC50 in the data set with SU-DHL-6 cells and on BRD4 (BD1) were 10 nM and 2 nM, respectively. Moreover, the MLM_T1/2 result in data set [1] was “∞”. Further, the HLM_T1/2 result in data set [2] is “∞”.
For the compound `CCS(=O)(=O)Cc1ccc2c(c1)-c1cn(C)c(=O)cc1CN=C2c1ccc(F)cc1` [Compound 4009, 7-(4-fluorophenyl)-2-methyl-10-(ethylsulfonemethyl)-2H-benzo[c]pyrido[3,4-e]azepin-3(5H)-ketone], the IC50 in the data set on SU-DHL-6 cells came out at 83 nM; on BRD4 (BD1), 6 nM. The compound also had an MLM_T1/2 in data set [1] of 588.07 min. Moreover, the CLint scaled at 1 µM in data set [1] stood at 9.28 mL/min/kg; in data set [2], 3.69 mL/min/kg. In data set [2], this compound had an HLM_T1/2 of 471.41 min.
Turning to `CCS(=O)(=O)Nc1ccc(Oc2ccc(F)cc2F)c(-c2cn(C)c(=O)c3[nH]ccc23)c1` [ABBV-075], the IC50 is 21 nM with SU-DHL-6 cells and 2 nM on BRD4 (BD1). This compound had an MLM_T1/2 in data set [1] of 81.11 min. Besides, the CLint scaled at 1 µM came to 67.3 mL/min/kg in data set [1] and 1.19 mL/min/kg in data set [2]. Besides, the HLM_T1/2 in data set [2] was determined as 1465.60 min.
